From patent publication US8748113B2, “Methods for detecting and monitoring circulating cancer stem cells” (The Johns Hopkins University, priority 2007, dated 2014)
“Also recorded” adds a separate entry of the source.

Assays:
Format in all cases: cell-based, human
[1] = system: clonogenic MM cells; test: In vitro clonogenic growth of MM precursors (summary statements); conditions: summary statement
Text: Many agents are active in multiple myeloma (MM), but the majority of patients relapse. […] We further characterized clonogenic MM cells and stained cell lines using the Hoechst side population and Aldefluor assays. […] Furthermore, both the side population and Aldefluor assays were capable of identifying circulating clonotypic memory B cell populations within the peripheral blood of MM patients.
CD138^− precursors or CD138^+ plasma cells were isolated from the RPMI 8226 or NCI-H929 cell lines and treated with each of the two humanized monoclonal antibodies, rituximab or alemtuzumab, and in combination with human complement that strongly enhances their in vitro activity through complement dependent cytoxicity. Neither complement alone nor the monoclonal antibodies with or without complement affected the clonogenic growth of CD138^+ plasma cells that lack the target antigens (FIG. 8B; P>0.3 for all groups compared to the untreated control).
Although stem cells have been identified in an increasing number of human cancers, the clinical relevance and implications of these findings remain unclear. Standard response criteria used to measure the clinical efficacy of anti-cancer treatments primarily reflect changes in disease bulk and activity against mature tumor cells. Since cancer stem cells are a relatively low frequency population in most tumor types, the true inhibition of these cells is likely to be difficult to assess early following treatment, and a prolongation of disease remission would be required to establish such activity. The initial clinical responses induced by dexamethasone, lenalidomide, bortezomib and cyclophosphamide seen as decreased bone marrow plasmacytosis and monoclonal Ig levels in MM likely reflect the activity of these agents against mature MM plasma cells. […] It is well known that the anti-tumor activity of these agents is mediated in part by modulating the interaction between myeloma plasma cells and bone marrow stromal cells.
Our results complement a recent report describing the relative radioresistance of glioblastoma cancer stem cells compared to the differentiated cells that make up the bulk of the tumor mass. The stark biological differences between cancer stem cells and mature tumor cells is likely to be representative of many other malignancies as the clinical pattern of relapse following effective treatment can be seen in most human cancers. Therefore, therapeutic strategies that target the specific biology of cancer stem cells are likely required to prevent the continued production of mature tumor cells and produce sustained remissions. […] Therefore, optimal clinical strategies may require combining agents active against MM plasma cells to decrease tumor burden and alleviate symptoms with those that target MM cancer stem cells to prevent tumor regrowth and relapse.

[2] = system: CD138+ plasma cells from the RPMI 8226 and NCI-H929 MM cell lines; test: Clonogenic growth of CD138+ plasma cells isolated from MM cell lines; conditions: FIGS. 10A and B, P<0.02 compared to the untreated control
[3] = system: CD138neg MM progenitors derived from primary clinical specimens; test: Clonogenic recovery of CD138neg MM progenitors from primary clinical samples; conditions: 4 MM patients; FIG. 10C; P>0.2 compared to the untreated control

Molecule	effect of antibodies on clonogenic MM cells [1]	clonogenic growth of CD138+ plasma cells [2]	effect on clonogenic MM precursors from patients [3]	effect of anti-myeloma agents on CD138neg precursors / clonogenic MM progenitors [1]	effect of anti-myeloma agents on CD138neg precursors / clonogenic MM progenitors ([1]; listed as lenadilomide)
Rituximab: humanized monoclonal antibody that targets the B-cell antigen CD20	inhibit clonogenic MM cells	–	–	–	–
CC(C)C[C@H](NC(=O)[C@H](Cc1ccccc1)NC(=O)c1cnccn1)B(O)O [bortezomib]	–	inhibited	not significantly affected	little effect; also recorded: similarly resistant	–
Nc1cccc2c1CN(C1CCC(=O)NC1=O)C2=O (stereo not drawn) [lenalidomide]	–	inhibited	not significantly affected	similarly resistant	little effect
alemtuzumab: humanized monoclonal antibody that targets the B-cell antigen CD52	inhibit clonogenic MM cells	–	–	–	–
